# Data as given in patent publication US20020061888A1, “Combination therapy for the prophylaxis and treatment of hyperlipidemic conditions and disorders” (priority 2000, published 2002).
# Assays:
# Format in all cases: in vivo
# Male beagle dogs [1] = assay: Fecal bile acid concentration in beagle dogs (enzymatic 3α-hydroxysteroid dehydrogenase assay of fecal extracts); conditions: pravastatin monotherapy 10 mg/kg/day; for FECAL BILE ACID CONCENTRATION: n = 6
# Method: Male beagle dogs (9-10 kg) obtained from Marshall farms were fed a normal chow diet once a day for a two hour interval and given water ad libitum. Prior to initiating treatment, the dogs were weighed and blood samples were drawn from the cephalic vein of each dog following an overnight fast to evaluate pretreatment serum total cholesterol levels at the start of the study. […] All doses were administered in gelatin capsules per os to each dog between 9:00-9:30 a.m. prior to feeding. All animals were fed between 9:30-10:00 a.m. and were allowed two hours to eat, at which time any remaining food was removed. […] Three consecutive 24 hour fecal samples were collected for each group during the last 72 hours of each week and used to measure the concentration of fecal biles acids excreted during that time period.
# Fecal samples were collected to determine the fecal bile acid (“FBA”) concentration for each animal. Three consecutive 24 hour fecal samples were collected between 8:00 a.m. and 9:00 a.m. each day, prior to dosing and feeding, during the last 72 hour period of each week. The separate daily collections from each dog were weighed, combined and homogenized with distilled water in a food processor to generate a homogeneous slurry. A 1.4 g sample of fecal homogenate was extracted with 2.6 mL of a solution containing tertiary butanol:distilled water in the ratio of 2:0.6 (final concentration of 50% tertiary butanol v/v distilled water) for 45 minutes in a 37° C. water bath and centrifuged for 13 minutes at 2000 x g. The concentration of bile acids (μmoles/gram homogenate) was determined using a 96-well enzymatic assay system described in van der Meer et al., “t-Butanol Extraction of Feces: A Rapid Procedure For Enzymic Determination Of Fecal Bile Acids”, Cholesterol, Metabolism in Health and Disease: Studies in the Netherlands, edited by Beynen, et al., Ponsen and Looyen, Wageningen, 1985; and Turley et al., “Re-evaluation of the 3 Alpha-Hydroxysteroid Dehydrogenase Assay For Total Bile Acids In Bile”, J. Lipid Research, 19:924-928, 1978.
# A 20 μL aliquot of each fecal extract was added to each of two sets of triplicate wells in a 96-well assay plate. A standardized sodium taurocholate solution and a standardized fecal extract solution (previously made from pooled samples and characterized for its bile acid concentration) were also analyzed for assay quality control. A standard curve of five points containing 30-540 nmoles/well was generated by serial dilutions of an initial 20 μL aliquot of 90 mM sodium taurocholate. A 230 μL aliquot of a reaction mixture containing 1M hydrazine hydrate, 0.1 M pyrophosphate and 0.46 mg/ml NAD was added to each well. Subsequently, a 50 μL aliquot of either 3α-hydroxysteroid dehydrogenase (“HSD”) enzyme (0.8 units/mL) or assay buffer (0.1 M sodium pyrophosphate) was then added to one each of the two sets of triplicates. Following 60 minutes of incubation at room temperature, the optical density at 340 nm was measured and the mean of each set of triplicate samples was calculated. The difference in optical density with and without HSD enzyme was used to determine the bile acid concentration (mM) of each sample based on the sodium taurocholate standard curve. The bile acid concentration of the extract (μmoles/gram homogenate), the total weight of the fecal homogenate (grams) and the body weight of the dogs (kg) were used to calculate the corresponding fecal bile acid concentration in μtmoles/kg/day for each animal.
# All reagents used for the assay were obtained from Sigma Chemical Co., St. Louis, Mo. (HSD enzyme—catalog # H-1506; NAD—catalog # N1636; sodium taurocholate—catalog # T-4009).
# Male beagle dogs [2] = assay: Serum triglyceride in beagle dogs; conditions: n = 6
# Method: (§1) Following this initial four week dose-ranging study, dogs from the two groups receiving 10 mg/kg/day pravastatin (a.m. and p.m. dosing groups) were randomized into two new treatment groups based on serum total cholesterol levels to initiate the combination treatment study. […] Dosing continued in this manner for an additional four weeks (Weeks 5-8) with blood and 48-hour fecal samples collected at the end of each week for serum lipid measurements and fecal bile acid determinations, respectively. […] At the end of this three-week period, pravastatin dosing and all empty capsule dosing were discontinued and blood samples were collected weekly for a final three weeks (weeks 12-14) to monitor the return of serum total cholesterol levels back to baseline.
# Blood was collected from the cephalic vein of each dog into serum separator tubes. The blood was centrifuged at 900×g for 20 minutes at room temperature and the serum decanted. All analyses were performed on a Cobas Mira Clinical Analyzer System (Roche Diagnostic Systems, Branchburg, N.J.) using Roche Diagnostic reagents for enzymatic determinations of serum cholesterol and triglycerides. Commercial calibrator and quality control materials were analyzed with each run to verify assay accuracy and precision. A two-tailed, paired Students t-test was used to determine the statistical significance of changes in total serum cholesterol in treated animals compared to their pretreatment values. A two-sample, two-tailed unequal variance Students t-test was used to determine serum total cholesterol and triglyceride changes in the combination therapy group compared to the monotherapy groups. […]
# Male beagle dogs [3] = assay: Body or fecal weights, stool consistency, general animal health of treated beagle dogs; conditions: Example 3 study (pravastatin 3-30 mg/kg/day, compound A-5 4.0 mg/kg/day, combination), any of the groups
# Method: Male beagle dogs (9-10 kg) obtained from Marshall farms were fed a normal chow diet once a day for a two hour interval and given water ad libitum. Prior to initiating treatment, the dogs were weighed and blood samples were drawn from the cephalic vein of each dog following an overnight fast to evaluate pretreatment serum total cholesterol levels at the start of the study. […] All doses were administered in gelatin capsules per os to each dog between 9:00-9:30 a.m. prior to feeding. All animals were fed between 9:30-10:00 a.m. and were allowed two hours to eat, at which time any remaining food was removed. […] Animals were dosed daily for three weeks and blood samples were taken at the end of each week after an overnight fast for comparison with pretreatment serum total cholesterol levels. Three consecutive 24 hour fecal samples were collected for each group during the last 72 hours of each week and used to measure the concentration of fecal biles acids excreted during that time period.
# as §1
# Male beagle dogs (9-10 kg) obtained from Marshall farms were fed once a day for two hours and given water ad libitum.
# Male beagle dogs [4] = assay: Serum total cholesterol in beagle dogs (serum lipid measurements); conditions: pravastatin 16.0 mg/kg/day, Week 3, mean ± SEM, n = 6
structure (smiles),measurement,setting,value
"CC[C@H](C)C(=O)O[C@H]1C[C@H](O)C=C2C=C[C@H](C)[C@H](CC[C@@H](O)C[C@@H](O)CC(=O)O)[C@H]21 [pravastatin, Pravastatin]",% change in fecal bile acid concentration from Week 0,Male beagle dogs [1]; Week 5,(−54) %
same,FECAL BILE ACID CONCENTRATION,"Male beagle dogs [1]; Week 5, mean ± SEM",17 ± 5 µmol/kg/day
same,% change in fecal bile acid concentration from Week 0,Male beagle dogs [1]; Week 6,(−38) %
same,FECAL BILE ACID CONCENTRATION,"Male beagle dogs [1]; Week 6, mean ± SEM",23 ± 7 µmol/kg/day
same,% change in fecal bile acid concentration from Week 0,Male beagle dogs [1]; Week 7,(−19) %
same,FECAL BILE ACID CONCENTRATION,"Male beagle dogs [1]; Week 7, mean ± SEM",30 ± 6 µmol/kg/day
same,% change in fecal bile acid concentration from Week 0,Male beagle dogs [1]; Week 8,(−30) %
same,FECAL BILE ACID CONCENTRATION,"Male beagle dogs [1]; Week 8, mean ± SEM",26 ± 9 µmol/kg/day
same,% change in fecal bile acid concentration from Week 0,Male beagle dogs [1]; Week 9,(−24) %
same,FECAL BILE ACID CONCENTRATION,"Male beagle dogs [1]; Week 9, mean ± SEM",28 ± 5 µmol/kg/day
same,% change in fecal bile acid concentration from Week 0,Male beagle dogs [1]; Week 10,(−24) %
same,FECAL BILE ACID CONCENTRATION,"Male beagle dogs [1]; Week 10, mean ± SEM",28 ± 6 µmol/kg/day
same,TOTAL SERUM TRIGLYCERIDE,"Male beagle dogs [2]; pravastatin monotherapy 10 mg/kg/day, dosed Weeks 1-11, Week 4, mean ± SEM",30 ± 4 mg/dL
same,TOTAL SERUM TRIGLYCERIDE,"Male beagle dogs [2]; pravastatin monotherapy 10 mg/kg/day, dosed Weeks 1-11, Week 5, mean ± SEM",34 ± 3 mg/dL
same,TOTAL SERUM TRIGLYCERIDE,"Male beagle dogs [2]; pravastatin monotherapy 10 mg/kg/day, dosed Weeks 1-11, Week 6, mean ± SEM",35 ± 4 mg/dL
same,TOTAL SERUM TRIGLYCERIDE,"Male beagle dogs [2]; pravastatin monotherapy 10 mg/kg/day, dosed Weeks 1-11, Week 7, mean ± SEM",37 ± 3 mg/dL
same,TOTAL SERUM TRIGLYCERIDE,"Male beagle dogs [2]; pravastatin monotherapy 10 mg/kg/day, dosed Weeks 1-11, Week 8, mean ± SEM",38 ± 5 mg/dL
same,TOTAL SERUM TRIGLYCERIDE,"Male beagle dogs [2]; pravastatin monotherapy 10 mg/kg/day, dosed Weeks 1-11, Week 9, mean ± SEM",34 ± 2 mg/dL
same,TOTAL SERUM TRIGLYCERIDE,"Male beagle dogs [2]; pravastatin monotherapy 10 mg/kg/day, dosed Weeks 1-11, Week 11, mean ± SEM",33 ± 3 mg/dL
same,TOTAL SERUM TRIGLYCERIDE,"Male beagle dogs [2]; pravastatin monotherapy group, dosing terminated after Week 11, Week 12, mean ± SEM",46 ± 4 mg/dL
same,TOTAL SERUM TRIGLYCERIDE,"Male beagle dogs [2]; pravastatin monotherapy group, dosing terminated after Week 11, Week 13, mean ± SEM",44 ± 3 mg/dL
same,TOTAL SERUM TRIGLYCERIDE,"Male beagle dogs [2]; pravastatin monotherapy group, dosing terminated after Week 11, Week 14, mean ± SEM",40 ± 4 mg/dL
same,"changes in body or fecal weights, stool consistency or general animal health",Male beagle dogs [3],no significant changes
same,SERUM TOTAL CHOLESTEROL,Male beagle dogs [4],134 ± 13^2 mg/dL
